Some test systems named below: HOP-92 NSCLC; CCRF-CEM leukemia; M14 melanoma; HL-60(TB) leukemia; SNB-19 CNS; HT29 colon; LOX IMVI melanoma; SNB-75 CNS; KM12 colon; NCI-H460 lung.
Common to all, as to test: NCI-60 cell line screen, 48 h

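Assay format: 96-well plates, 48-hour exposure. GI50 is the concentration that inhibits growth by half. At the TGI there is no net growth.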

Consider `O=C(O)CCSC1=NCCN1`, for which the TGI in the experiment on HOP-92 NSCLC, with CCRF-CEM leukemia, with M14 melanoma, in the experiment with HL-60(TB) leukemia, in the experiment on SNB-19 CNS and in the experiment on HT29 colon was over 100 µM throughout. The TGI with LOX IMVI melanoma, with SNB-75 CNS, in the experiment on KM12 colon and in the experiment on NCI-H460 lung was over 100 µM in each case.
Consider `Cc1ccc(NC2=N/C(=C/c3ccco3)C(Cl)=N2)cc1`, for which the TGI with HOP-92 NSCLC, with CCRF-CEM leukemia, with M14 melanoma, in the experiment on HL-60(TB) leukemia, in the experiment with SNB-19 CNS and in the experiment with HT29 colon was over 100 µM throughout. The TGI with LOX IMVI melanoma, with SNB-75 CNS, in the experiment with KM12 colon and in the experiment with NCI-H460 lung was over 100 µM each time.
For the compound `CNC(=O)N(CCC#N)CCCN(C(=O)N(C)C)c1ccccc1`, the TGI in the experiment on HOP-92 NSCLC, with CCRF-CEM leukemia, in the experiment on M14 melanoma, in the experiment on HL-60(TB) leukemia, in the experiment on SNB-19 CNS and with HT29 colon was over 100 µM each time. Further, the TGI in the experiment with LOX IMVI melanoma, in the experiment on SNB-75 CNS, with KM12 colon and in the experiment with NCI-H460 lung was over 100 µM throughout.
With `CCOC(=O)CCC(NC(=O)OCc1ccccc1)C(=O)NC(CCC(=O)OCC)C(=O)NC(CCC(=O)OCC)C(=O)NNC(=O)OC(C)(C)C` (stereo unspecified), the TGI in the experiment on HOP-92 NSCLC, in the experiment with CCRF-CEM leukemia, in the experiment with M14 melanoma, in the experiment on HL-60(TB) leukemia, in the experiment on SNB-19 CNS and in the experiment with HT29 colon was over 100 µM throughout. The TGI with SNB-75 CNS and in the experiment with NCI-H460 lung was over 100 µM throughout.
In the case of `O=[N+]([O-])c1ccc2c(c1)n1c(N3CCCC3)[n+]3ccccc3c1c1c3cccc[n+]3c(N3CCCC3)n21`, the TGI with HOP-92 NSCLC was over 100 µM; with CCRF-CEM leukemia, 79.9 µM; with M14 melanoma, over 100 µM; with HL-60(TB) leukemia, 94.1 µM; with SNB-19 CNS, over 100 µM; in the experiment with LOX IMVI melanoma, over 100 µM. The TGI in the experiment on SNB-75 CNS, with KM12 colon and in the experiment on NCI-H460 lung was over 100 µM throughout.
As to `COc1ccc2c(c1)C(=O)C1CCC(=O)N1C2c1ccc2c(c1)OCO2` (stereo unspecified), the TGI came out at 13.3 µM in the experiment with CCRF-CEM leukemia; 29 µM in the experiment on M14 melanoma; 42.4 µM in the experiment on HL-60(TB) leukemia; 26.7 µM in the experiment with SNB-19 CNS; 16.9 µM with HT29 colon; 35.1 µM in the experiment with LOX IMVI melanoma. Also, the TGI was 36.5 µM with SNB-75 CNS, 22.2 µM in the experiment with KM12 colon and 64.4 µM in the experiment on NCI-H460 lung.
Consider `C[C@]12CCC(=O)C=C1CC[C@@H]1[C@@H]2[C@@H](O)C[C@@]2(C)[C@H]1CC[C@]2(O)C(=O)COC(=O)CCC1CCCC1`, for which the TGI with HOP-92 NSCLC, in the experiment on CCRF-CEM leukemia, in the experiment with HL-60(TB) leukemia, in the experiment on SNB-19 CNS, with HT29 colon and in the experiment with LOX IMVI melanoma was over 100 µM each time. For the same compound, the TGI with SNB-75 CNS, in the experiment with KM12 colon and in the experiment on NCI-H460 lung was over 100 µM throughout.
As to `COC(=O)/C=c1/c2ccccc2n2c1c1ccccc1[n+]2C`, the TGI in the experiment with CCRF-CEM leukemia was 51.1 µM; with M14 melanoma, 15.5 µM; in the experiment with HL-60(TB) leukemia it was 8.44 µM; with SNB-19 CNS it was over 100 µM; with HT29 colon it was 12.8 µM; in the experiment on LOX IMVI melanoma, 27.9 µM. The figures for the TGI with SNB-75 CNS, with KM12 colon and with NCI-H460 lung were 8.44 µM, 9.47 µM and 12.5 µM, respectively.
On to `C[PH+](c1nc2ccccc2nc1[PH+](C)C(C)(C)C)C(C)(C)C.C[PH+](c1nc2ccccc2nc1[PH+](C)C(C)(C)C)C(C)(C)C.[Au+].[Cl-]` (stereo unspecified), for which the GI50 with HOP-92 NSCLC was 0.0225 µM; in the experiment with CCRF-CEM leukemia, 0.0603 µM; in the experiment with M14 melanoma, 0.0386 µM; with HL-60(TB) leukemia, 0.07 µM; in the experiment on SNB-19 CNS it was 0.0453 µM; in the experiment on HT29 colon it was 0.0294 µM. Further, the figures for the GI50 in the experiment on LOX IMVI melanoma, with SNB-75 CNS and in the experiment with KM12 colon were 0.0396 µM, 0.0224 µM and 0.0314 µM, respectively. The TGI was 0.0681 µM with HOP-92 NSCLC; 1.5 µM with CCRF-CEM leukemia; 0.31 µM in the experiment with M14 melanoma; 1.02 µM with HL-60(TB) leukemia; 1.7 µM in the experiment with SNB-19 CNS; 0.155 µM with LOX IMVI melanoma. The TGI in the experiment on SNB-75 CNS was 1.34 µM; with KM12 colon, 0.131 µM.
With `CCOC(=O)c1c(N)sc2c1C(C(=O)OCC)CCC2` (stereo unspecified), the TGI in the experiment with HOP-92 NSCLC, in the experiment with CCRF-CEM leukemia, in the experiment on M14 melanoma, with HL-60(TB) leukemia, in the experiment with SNB-19 CNS and in the experiment with HT29 colon was over 100 µM in each case. The TGI in the experiment on SNB-75 CNS, with KM12 colon and in the experiment on NCI-H460 lung was over 100 µM each time.
For the compound `Cc1nc(Nc2nc3ccccc3[nH]2)nc(Cl)c1CCCl`, the TGI in the experiment with HOP-92 NSCLC is 90.3 µM; in the experiment on CCRF-CEM leukemia it was over 100 µM; with M14 melanoma, over 100 µM; in the experiment on HL-60(TB) leukemia, over 100 µM; in the experiment on SNB-19 CNS it was over 100 µM; in the experiment with HT29 colon, over 100 µM. Further, the TGI in the experiment with SNB-75 CNS, in the experiment on KM12 colon and in the experiment with NCI-H460 lung was over 100 µM each time.
For `Cc1c(C#N)c(=N)oc2ccccc12`, the TGI in the experiment with HOP-92 NSCLC, in the experiment on M14 melanoma, in the experiment on HL-60(TB) leukemia, in the experiment on SNB-19 CNS, in the experiment on HT29 colon and in the experiment with LOX IMVI melanoma was over 100 µM each time. Further, the TGI with SNB-75 CNS, with KM12 colon and in the experiment on NCI-H460 lung was over 100 µM throughout.
For `COc1cc(S(=O)(=O)Nc2ccc(-c3csc(/N=C\c4ccccc4)n3)cc2)ccc1Cl`, the TGI in the experiment on HOP-92 NSCLC, with CCRF-CEM leukemia, in the experiment on M14 melanoma, in the experiment with HL-60(TB) leukemia, with SNB-19 CNS and in the experiment with HT29 colon was over 100 µM each time. For the same compound, the TGI in the experiment with LOX IMVI melanoma, with SNB-75 CNS and in the experiment on KM12 colon was over 100 µM in each case.
For `CC1=CC[C@](C)(O)[C@@]2(C)CC[C@H]3C(=C(C)C)C(=O)C[C@]3(C)C[C@H]12`, the TGI is over 50 µM in the experiment on HOP-92 NSCLC; 34.2 µM in the experiment with CCRF-CEM leukemia; over 50 µM with M14 melanoma; 16.4 µM in the experiment on HL-60(TB) leukemia; over 50 µM with SNB-19 CNS; over 50 µM in the experiment with HT29 colon. The TGI was 17 µM in the experiment on LOX IMVI melanoma, over 50 µM in the experiment on SNB-75 CNS and over 50 µM with KM12 colon.

The record behind these values is PubChem BioAssay (NCI).
